Measurements: patent US11116811B2, “Pharmaceutical composition comprising refined indigo naturalis extracts and the use thereof” (Galderma S.A., priority 2015, dated 2021)
≈ marks a conversion by molar mass, not a printed value.

Tests used:
[1] = tested on: IL-22 induced psoriasis-like mouse models; assay: IL-22 induced psoriasis-like mouse model, ear thickness; format: in vivo, BABL/c mice; parameters: AUC of ear thickness: unit not given here
Method: • BABL/c mice, male, body weight 19-22 g, purchased from Shanghai SLC AnimalCenter. • Room temperature: 24±1° C. • Room relative humidity: 40-70% • Light cycle: Fluorescent light for 12-hour light (8:00-20:00) 12-hour dark • Animal hosting: 4 mice/cage • Food: Free access to food (irradiated, Shanghai SLAC Laboratory Animal Co. Ltd., China) • Water: Free access to tap water from local supply (first filtered by Molanimal ultrapure water machine from the municipal water supply) Instruments • MJ Research PTC-200 Peltier Thermal cycler (Alpha Unit™ Block Assembly for PTC DNA Engine™ systems) • Applied Biosystems 7500 realtime PCR system • Digimatic micrometer caliper: Mitutoyo, Japan. Accuracy: 0.001 mm Reagents • Recombinant mouse IL-22 (rmIL-22), Novoprotein (sinobio), Cat. C047, Lot. 0375351 • High capacity cDNA Reverse Transcription kit, Applied Biosystems, Part No.: 4368813, Lot: 0909069 • Thermo Scientific ABsolute SYBR Green Rox Mix, Thermo Scientific, Cat: AB-1163/A, Lot: 0911/16 Positive Control • Protopic® (tacrolimus, FK506), 0.1% ointment, Astellas Toyama Co., Ltd. Toyama Plant, H20100079, Lot: 028680. Dosing Regimen
Different concentrations of test samples, vehicle, or 0.1% of FK506 ointment, were topically administrated at 1% one hour after the induction of model and then given daily from day 1 to day 11, twice a day. The first day of administration of a test article was regarded as day 0.
Topical application, b.i.d.
Intradermal injection of 20 μL PBS, either alone or containing 100 or 500 ng recombinant mouse IL-22 (eBiosience), was administered into the ears of anesthetized mice using a 30-gauge needle every other day for eleven days. Ear thicknesses were measured before injection on day 0 and thereafter on days without injections. Ear measurements were taken at the center of the ears using a digimatic micrometer caliper (Mitutoyo).
Twenty-four hours after the last IL-22 treatment, mice were sacrificed, and ears were collected for further analysis.
Results of ear thickness data were expressed as mean±S. E. M. AUC of ear swelling was calculated by the ear thickness data from day 0 to day 11, and analyzed by repeated-measured ANOVA methods with IMP® software. Cytokine protein and gene expression data were evaluated with a one-way ANOVA and followed by student's t-test for post-hoc analysis. (Significance level was set at p<0.05).

[2] = tested on: NFκB; assay: TNFα-induced NFκB activation reporter assay in 293/NFκB-Luc cells; format: cell-based; settings: Homo sapiens; TNFα-stimulated 293/NFκB-Luc, luciferase; replicate values separated by /; read-out: pro-inflammatory cytokine production IC50 (NFKB)
Method: Cell lysates were prepared by removing media and adding lysis buffer. 5× volume Luciferase Assay Reagent was added to each well prior to read plate. Luminescence was recorded using Perkin-Elmer Victor III plate reader (Perkin-ElmerLife Sciences, Boston, Mass., USA).
All IC50 values were determined by using Xlfit™ software (version 2.0) from ID Business Solutions (Guildford, UK). Background was defined in culture with cells treated with DMSO only and was subtracted for IC50 calculations.

[3] = study 1, IL-22 100 ng in 20 μL i.d.
[4] = study 1, IL-22 500 ng in 20 μL i.d.

Molecule: C=CC[C@@H]1/C=C(\C)C[C@H](C)C[C@H](OC)[C@H]2O[C@@](O)(C(=O)C(=O)N3CCCC[C@H]3C(=O)O[C@H](/C(C)=C/[C@@H]3CC[C@@H](O)[C@H](OC)C3)[C@H](C)[C@@H](O)CC1=O)[C@H](C)C[C@@H]2OC [FK506, tacrolimus]
- AUC of ear thickness ([1]; study 2, 0.1% topical b.i.d.): 403
- ear thickness on day 11 ([1]; study 2, 0.1% topical b.i.d.): 256.8 ± 3.5 μm
- inhibition of AUC of ear thickness ([1]; study 2, 0.1% topical b.i.d.): 79.2%
- AUC of ear thickness ([1]; study 3, 0.1% topical b.i.d.): 369
- ear thickness on day 11 ([1]; study 3, 0.1% topical b.i.d.): 278.8 ± 5.0 μm
- inhibition of AUC of ear thickness ([1]; study 3, 0.1% topical b.i.d.): 81.3%
- AUC of ear thickness ([1]; study 4, 0.1% topical b.i.d.): 446
- ear thickness on day 11 ([1]; study 4, 0.1% topical b.i.d.): 260.4 ± 4.5 μm
- inhibition of AUC of ear thickness ([1]; study 4, 0.1% topical b.i.d.): 80.4%
- AUC of ear thickness ([1]; study 5, 0.1% topical b.i.d.): 454
- ear thickness on day 11 ([1]; study 5, 0.1% topical b.i.d.): 263.4 ± 6.3 μm
- inhibition of AUC of ear thickness ([1]; study 5, 0.1% topical b.i.d.): 70.4%

Molecule: C=C1CC[C@@H]2[C@](C)(CO)[C@H](O)CC[C@@]2(C)[C@@H]1C/C=C1/C(=O)OC[C@H]1O [LGT, Andrographolide]
- IC50 [2]: 0.45 ng/mL (≈ 1.28 nM)

B1: IL-22: Recombinant mouse IL-22, injected intradermally into ears to induce the psoriasis-like model (protein, UniProt Q9JJY9 34-179, looked up)
Interleukin-22: LPVNTRCKLEVSNFQQPYIVNRTFMLAKEASLADNNTDVRLIGEKLFRGVSAKDQCYLMKQVLNFTLEDVLLPQSDRFQPYMQEVVPFLTKLSNQLSSCHISGDDQNIQKNVRRLKETVKKLGESGEIKAIGELDLLFMSLRNACV
- AUC of ear thickness [1, 3]: 590
- ear thickness on day 11 [1, 3]: 248.3 ± 1.9, μm
- ear thickness (d15) ([1]; study 1, IL-22 100 ng in 20 μL i.d., d15): 255.3 ± 15.1 μm
- AUC of ear thickness [1, 4]: 1055
- ear thickness on day 11 [1, 4]: 311.3 ± 18.0, μm
- ear thickness, second value ([1]; study 1, IL-22 500 ng in 20 μL i.d., second value (day not given)): 296.3 ± 5.0 μm
